Measurements: article PMC6754336 (Drug Design, Development and Therapy, 2019)
Structures can show the parent of a compound that is named as a salt.

Experiments:
[1] = test system: serotonin turnover (5-HIAA/5-HT); test: Serotonin turnover index in rat frontal cortex; format: in vivo; conditions: p.o.
[2] = Rat dual-probe brain microdialysis study; format: in vivo; conditions: rat MD study, 1 mg/kg p.o.
[3] = human plasma; cited from earlier work
[4] = test system: dopamine turnover ((HVA+DOPAC)/DA); test: Dopamine turnover index in rat striatum; format: in vivo; conditions: p.o.
in vivo = conditions: male, Wistar, rat, plasma, other: p.o. and i.v.
dopamine biosynthesis = test: NSD-1015-induced DOPA accumulation in striatum of reserpine-treated rats; format: in vivo, rat; conditions: p.o.

CN(C)C(=O)N[C@H]1CC[C@H](CCN2CCN(c3cccc(Cl)c3Cl)CC2)CC1 [CAR, trans-N-[4-[2-[4-(2,3-dichlorophenyl)piperazin-1-yl]ethyl]cyclohexyl]-N’,N’-dimethylureahydrochloride]
effect on serotonin turnover [1]: slightly reduced serotonin turnover
free extracellular level as percent of total brain exposure [2]: 1–2%
extracellular levels in the brain ([2]; listed as cariprazine, 1 mg/kg): 2.6 to 9.9 nM
half-life in humans [3]: 24 to 72 h
effect on dopamine turnover [4]: dose-dependently enhanced dopamine turnover
half-life (in vivo): 2 to 3 h
effect on NSD-1015-induced accumulation of DOPA (dopamine biosynthesis): inhibited the NSD-1015-induced accumulation of DOPA
